Results as given in patent US10435361B2, “Kinase inhibitors” (Topivert Pharma Limited, priority 2013, dated 2019).
Where two headings read alike, the source gives them in different places.

Columns and labels:
[1] = target: CYP2C9 (Homo sapiens (Human), UniProt P11712); experiment: CYP2C9 inhibition studies; type: in vitro ADME; settings: inhibition at 5 μM reported instead of 15 μM (precipitation)
Procedure: Assessment of certain in vitro ADME (absorption, distribution, metabolism, and excretion) parameters for certain compounds of the invention was conducted by BioFocus (Saffron Walden, UK).

[2] = test system: PBMCs; experiment: LPS-induced TNFα/IL-8 release in PBMC cells; type: cell-based; settings: Homo sapiens, assay (b), read-out: IC50 Values for Inhibition of Cytokine Release PBMCs IL-8
Outline: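 Healthy-donor PBMCs isolated by density gradient were pretreated with compound for 2 h, then stimulated with 1 ng/mL LPS (E. coli 0111:B4) for 24 h at 37° C., 5% CO2. IL-8 and TNFα in supernatants measured by sandwich ELISA.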

[3] = test system: PBMCs; experiment: IL-2 and IFN gamma release in CD3/CD28 stimulated PBMC cells; type: cell-based; settings: Homo sapiens, assay (c)
Outline: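 Healthy-donor PBMCs, density-gradient isolated, stimulated on plates pre-coated with anti-CD3 (0.3 μg/mL) and anti-CD28 (3 μg/mL) antibodies, with compound, for 3 days under standard culture conditions. IC50 derived from the dose-response curve.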

[4] = Hydrolytic stability study (DMSO/water 3:1, 60° C.); type: physicochemical
Procedure: Chemical stability of compounds of the invention was assessed in a mixture of DMSO and water (3:1) at a test compound concentration of 1 mg/mL
Agilent, Waters X-Select C18, 2.5 μm, 4.6×30 mm column, 4 min method, 5-95%
MeCN/water (0.1% formic acid).
Column Oven Temperature 40° C.
Sample Preparation • A 1.0 mg sample of test compound was dissolved in 750 μL of DMSO. Water (250 μL) was added slowly, ensuring no precipitation occurred.
Recording Stability • A 50 μL aliquot of the test solution was removed and analysed in duplicate by 5 μL HPLC injections. The peak area for the test compound was recorded following manual integration of the corresponding UV trace. • The test solution was heated to 60° C., with stirring, and 50 μL aliquots removed for HPLC analysis at 5 and 24 h timepoints.

[5] = test system: Salmonella typhimurium TA100; experiment: Bacterial reverse mutation screen, strain TA100; type: cell-based; settings: presence or absence of S-9 mix; up to 1000 μg/plate analysable
Procedure: (§1) Studies were conducted by Sequani (Ledbury, Herefordshire, UK) to assess compounds of the invention for their ability to induce mutations in two histidine dependent auxotrophic mutants of Salmonella typhimurium, strains TA98 and TA100 in vitro.
(§2) The mutation screen was conducted using the plate incorporation method and was performed in both the presence and absence of S-9 mix (a liver post-mitochondrial fraction derived from the livers of Aroclor 1254 treated rats). The bacteria were exposed to test compounds dissolved in dimethylsulphoxide, which solvent was also used as the negative control. The dose levels used were 0.32, 1.6, 8, 40, 200, 1000 or 5000 μg/plate.
(§3) Precipitation was also noted in both strains at 1000 μg/plate in the presence and absence of S-9 mix.

[6] = test system: BDF1 mice; experiment: TNBS-induced colitis in mice; type: in vivo; settings: conducted over 2 days; vehicle corn oil/transcutol/maisine/cremophor ELP
Procedure: Non-fasted, 10-12 week old, male BDF1 mice are dosed by oral gavage twice daily with either vehicle (5 mL/kg), reference item (Budesonide 2.5 mg/kg) or test compound (1 or 5 mg/kg) one day before (Day −1) stimulation of the inflammatory response by treatment with 2,4,6-trinitrobenzenesulphonic acid (TNBS) (15 mg/mL in 50% ethanol/50% saline). On Day 0 of the study TNBS (200 μL) is administered intra-colonically via a plastic catheter with BID dosing of the vehicle, reference or test compound continuing for 2 or 4 days. During the study, animals are weighed every day and stool observations are made and recorded as a score, based on stool consistency. At the time of sacrifice on Day 2 (or Day 4), the large intestine is removed and the length and weight recorded. Sections of the colon are taken for histopathology scoring to determine disease severity.

[7] = test system: PBMCs; experiment: Cell mitosis assay in PBMCs; type: cell-based; settings: Homo sapiens, PBMC, 5 μg/mL
Outline: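 Human PBMCs from healthy donors, density-gradient isolated, stimulated with 2% PHA 48 h, then exposed 20 h to test compounds; demecolcine 0.1 μg/mL added 2 h before harvest. Fixed/permeabilised cells stained for phospho-histone H3 and propidium iodide; mitotic lymphocytes counted by flow cytometry.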

[8] = Plasma pharmacokinetics in rats, single intravenous or oral administration; type: in vivo; settings: male, Wistar, rat; for clearance: rats, intravenous 0.25 mg/kg
Procedure: (§4) Studies were conducted by Sai Life Sciences (Hinjewadi, Pune, India) to investigate the plasma pharmacokinetics and total colon tissue distribution of compounds of the invention. In particular, pharmacokinetic studies were carried out in: • male C57BL/6 mice, following a single oral administration; and • male Wistar rats following a single intravenous or oral administration.

[9] = test system: Lewis rats; experiment: Endotoxin-induced uveitis in rats; type: in vivo; settings: rats treated with intravitreal endotoxin LPS
Procedure: Male, Lewis rats (6-8 weeks old, Charles River UK Limited) are housed in cages of 3 at 19-21° C. with a 12 h light/dark cycle (07:00/19:00) and fed a standard diet of rodent chow and water ad libitum. Non-fasted rats are weighed, individually identified on the tail with a permanent marker, and receive a single intravitreal administration into the right vitreous humor (5 μL dose volume) of 100 ng/animal of LPS (Escherichia coli 0111:B4 prepared in PBS, Sigma Aldrich, UK) using a 32-gauge needle. Untreated rats are injected with PBS. Test compound, dexamethasone (Dex) or vehicle (20% hydroxypropyl-β-cyclodextrin, 0.1% HPMC, 0.01% Benzalkonium chloride, 0.05% EDTA, 0.7% NaCl in deionised water) are administered by the topical route onto the right eye (10 μL) of animals 30 minutes prior to LPS, at the time of LPS administration, and 1, 2 and 4 hours post LPS administration. Before administration, the solution or suspension to be administered is agitated for 5 minutes to ensure a uniform suspension. 6 hours after LPS dosing, animals are euthanized by overdose with pentobarbitone (i.v.). Following euthanasia, the right eye of each animal is enucleated and dissected into front (anterior) and back (posterior) sections around the lens. Each section is weighed and homogenised in 500 μL of sterile phosphate buffered saline followed by 20 minutes centrifugation at 12000 rpm at 4° C. The resulting supernatant is divided into 3 aliquots and stored at −80° C. until subsequent cytokine analysis by R&D DuoSet ELISA.

[10] = test system: Salmonella typhimurium TA98; experiment: Bacterial reverse mutation screen, strain TA98; type: cell-based; settings: presence or absence of S-9 mix; up to 1000 μg/plate analysable
Procedure: as §1, §2, §3

[11] = test system: HT29 cells; experiment: IL-1β-induced IL-8 release in HT29 cells; type: cell-based; settings: Homo sapiens, HT-29, assay (d), read-out: IC50 Values for Inhibition of Cytokine Release HT29 cells IL-8
Procedure: HT29 cells, a human colon adenocarcinoma cell line, are plated in a 96 well plate (24 hr) and pre-treated with compounds at the desired concentration for 2 hours before addition of 5 ng/mL of IL-1β (Abcam) for 24 hours. Supernatants are harvested for IL-8 quantification by Sandwich ELISA (Duo-set, R&D System). The IC50 is determined from the dose response curve.

[12] = test system: d-U937 cells; experiment: LPS-induced TNFα/IL-8 release in d-U937 cells; type: cell-based; settings: Homo sapiens, dU937, assay (aa)
Procedure: U937 cells, a human monocytic cell line, are differentiated to macrophage-type cells by incubation with phorbol myristate acetate (PMA; 100 ng/mL) for 48 to 72 hr. Cells are pre-incubated with final concentrations of test compound for 2 hr and are then stimulated with 0.1 μg/mL of LPS (from E. Coli: 0111:B4, Sigma) for 4 hr. The supernatant is collected for determination of TNFα and IL-8 concentrations by sandwich ELISA (Duo-set, R&D systems). […] The relative 50% effective concentration (REC50) is determined from the resultant concentration-response curve. The inhibition of IL-8 production is calculated at each concentration of test compound by comparison with vehicle control.

[13] = test system: SCID animals; experiment: Adoptive transfer in mice (CD45RBhigh cells into SCID animals); type: in vivo; settings: end of the study
Procedure: On Study day 0, female Balb/C mice are terminated and spleens obtained for CD45RB^high cell isolation (Using SCID IBD cell Separation protocol). Approximately 4×10^5 cells/mL CD45RB^high cells are then injected intraperitoneally (100 μL/mouse) into female SCID animals. On study day 14, mice are weighed and randomized into treatment groups based on body weight. On Day 14, compounds are administered BID, via oral gavage, in a peanut oil vehicle at the dose levels outlined below in Tables 6a and 6b and a dose volume of 5 mL/kg. Treatment continues until study day 42, at which point the animals are necropsied 4 hours after the morning administration. The colon length and weight are recorded and used as a secondary endpoint in the study as a measurement of colon oedema. The colon is then divided into six cross-sections, four of which are used for histopathology scoring (primary endpoint) and two are homogenised for cytokine analysis. Data shown is the % inhibition of the induction window between naïve animals and vehicle animals, where higher inhibition implies closer to the non-diseased, naïve, phenotype.

[14] = Plasma pharmacokinetics and total colon tissue distribution in mice, single oral administration; type: in vivo, C57BL/6 mice; settings: male, C57BL/6, mouse, 5 mg/kg, read-out: Median plasma concentration
Procedure: as §4

[15] = read-out: IC50 Values for Inhibition of Cytokine Release PBMCs IFNγ
[16] = read-out: IC50 Values for Inhibition of Cytokine Release PBMCs IL-2
[17] = po, 5 mg/kg, read-out: Median plasma concentration

CYP2C9, sequence (P11712 whole entry): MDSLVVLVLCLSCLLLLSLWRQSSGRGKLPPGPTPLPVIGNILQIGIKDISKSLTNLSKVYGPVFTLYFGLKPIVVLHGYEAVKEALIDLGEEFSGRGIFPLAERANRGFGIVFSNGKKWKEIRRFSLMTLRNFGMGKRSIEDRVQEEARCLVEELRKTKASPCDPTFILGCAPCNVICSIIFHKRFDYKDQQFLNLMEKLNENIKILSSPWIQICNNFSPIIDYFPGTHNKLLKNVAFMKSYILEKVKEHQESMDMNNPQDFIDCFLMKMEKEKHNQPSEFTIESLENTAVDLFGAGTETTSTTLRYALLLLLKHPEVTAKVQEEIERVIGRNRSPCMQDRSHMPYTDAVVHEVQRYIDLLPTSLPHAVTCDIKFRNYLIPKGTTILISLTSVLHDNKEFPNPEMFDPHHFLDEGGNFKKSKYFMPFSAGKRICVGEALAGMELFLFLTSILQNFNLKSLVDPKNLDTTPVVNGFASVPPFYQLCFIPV

clearance [8] | IC50 [11] | SMILES | IC50 [2] | IC50 [3, 15] | IC50 [3, 16] | activity in TNBS-induced colitis (histopathology analysis) [6] | inhibition at 5 µg/mL [7] | cytokine levels in the anterior and posterior segments of the eyes [9] | also measured
 |  | C#CC(C)(C)c1cc(NC(=O)Nc2ccc(Oc3ccnc(Nc4cc(C)c5[nH]ncc5c4)n3)c3ccccc23)n(-c2ccc(C)cc2)n1 [Ref Cpd A] |  |  |  |  |  |  | % Inh at 5 μM ([1]; CYP2C9, 0 min preincubation): 31^[†] %; % Inh at 5 μM ([1]; CYP2C9, 30 min preincubation): 66^[†] %
5.1 mL/min/kg | 8.1 nM | COCCOCCOCCNC(=O)c1cc(Nc2cc(Oc3ccc(NC(=O)Nc4cc(C(C)(C)C)cc(NS(C)(=O)=O)c4OC)c4ccccc34)ccn2)cc(OC)c1 [Example 3, 3-((4-((4-(3-(5-(tert-Butyl)-2-methoxy-3-(methylsulfonamido)phenyl)ureido)naphthalen-1-yl)oxy)pyridin-2-yl)amino)-5-methoxy-N-(2-(2-(2-methoxyethoxy)ethoxy)ethyl)benzamide] | 1.2 nM | 9.6 nM | 190 nM | displayed substantial activity | 31.7% |  | IC50 ([12]; method: relative to 10 μg/mL BIRB796 (REC50), read-out: IC50 Values for Inhibition of Cytokine Release dU937 cells TNFα): 0.4 nM; IC50 ([12]; read-out: IC50 Values for Inhibition of Cytokine Release dU937 cells IL-8): 1.3 nM; concentration at 0.5 h [8, 17]: 0 ng/mL; concentration at 1 h [8, 17]: 0 ng/mL; concentration at 2 h [8, 17]: 0 ng/mL; concentration at 4 h [8, 17]: 0 ng/mL; concentration at 6 h [8, 17]: 0 ng/mL; concentration at 8 h [8, 17]: 0 ng/mL; concentration at 12 h [8, 17]: 0 ng/mL; concentration at 24 h [8, 17]: 0 ng/mL; activity in adoptive transfer model (ratios of colon weight to length) [13]: displayed significant activity; concentration at 1 h [14]: 0 ng/mL; concentration at 2 h [14]: 0 ng/mL; concentration at 4 h [14]: 0 ng/mL; concentration at 8 h [14]: 0 ng/mL; concentration at 12 h [14]: 0 ng/mL; concentration at 24 h [14]: 0 ng/mL
14.2 mL/min/kg | 0.6 nM | CNC(=O)c1cc(C(C)(C)C)cc(NC(=O)Nc2ccc(Oc3ccnc(Nc4cc(OC)cc(OCCOCCOCCOC)c4)c3)c3ccccc23)c1OC [Example 29, 5-(tert-Butyl)-2-methoxy-3-(3-(4-((2-((3-methoxy-5-(2-(2-(2-methoxyethoxy)ethoxy)-ethoxy)phenyl)amino)pyridin-4-yl)oxy)naphthalen-1-yl)ureido)-N-methylbenzamide] | 2.3 nM | 3.5 nM | 51.2 nM |  | 34.6% | significantly reduced | 
 | 16.4 nM | COc1cc(Nc2cc(Oc3ccc(NC(=O)Nc4cc(C(C)(C)C)cc(NS(C)(=O)=O)c4OC)c4ccccc34)ccn2)cc(C(=O)NCCCN2CCOCC2)c1 [Example 66, 3-((4-((4-(3-(5-(tert-Butyl)-2-methoxy-3-(methylsulfonamido)phenyl)ureido)naphthalen-1-yl)oxy)pyridin-2-yl)amino)-5-methoxy-N-(3-morpholinopropyl)benzamide] | 1.9 nM | 20.2 nM | 49.2 nM |  | 66.6% | significantly reduced | 

SMILES | clearance [8] | IC50 [11] | IC50 [2] | IC50 [3, 15] | IC50 [3, 16] | activity in TNBS-induced colitis (histopathology analysis) [6] | inhibition at 5 µg/mL [7] | cytokine levels in the anterior and posterior segments of the eyes [9] | also measured
COc1c(NC(=O)Nc2ccc(Oc3ccnc(Nc4ccccc4)c3)c3ccccc23)cc(C(C)(C)C)cc1C(=O)NC1COC1 [Example 75, 5-(tert-Butyl)-2-methoxy-N-(oxetan-3-yl)-3-(3-(4-((2-(phenylamino)pyridin-4-yl)ox)-naphthalen-1-yl)ureido)benzamide] | 4.4 mL/min/kg |  | 5 nM | 14.9 nM | 56.8 nM | displayed substantial activity | 42.6% | significantly reduced | % Parent Remaining ([4]; DMSO/water 3:1, 0 min): 100%; % Parent Remaining ([4]; DMSO/water 3:1, 60° C., 1440 min): 99%; increases in revertant colonies, strain TA100 [5]: no dose-related or statistically significant increases in revertant colonies; increases in revertant colonies, strain TA98 [10]: no dose-related or statistically significant increases in revertant colonies
